Assays:
Assay in all cases: DiscoveRx scanMAX kinase profiling
Assay type in all cases: binding
ERK4 (MAPK4) = target: T1, ERK4 (MAPK4) (Homo sapiens, UniProt P31152); settings: read-out: Direct inhibitory activity on ERK4 (KINOMEscan)
T1 construct: purchased DiscoverX (San Diego, Calif.) scanMAX
Description: (§1) Biochemical assays: Recombinant human EIF2AK3 (PERK) catalytic domain (amino acids 536-1116; Cat # PV5107), GFP-eIF2a (Cat # PV4809) substrate, and Terbium-labelled phospho-eIF2a antibody (Cat # PR8956B) were purchased from Invitrogen (Carlsbad, Calif.). HIS-SUMO-GCN2 catalytic domain (amino acids 584-1019) was expressed and purified from E. coli. TR-FRET kinase assays were performed in the absence or presence of inhibitors in a reaction buffer consisting of 50 mM HEPES, pH 7.5, 10 mMMgCl2, 1.0 mM EGTA, and 0.01% Brij-35, and 100-200 nM GFP-eIF2a substrate. […] Following the addition of test compound, the reaction was initiated by addition of enzyme and incubated at room temperature for 45 minutes. The reaction was stopped by addition of EDTA to a final concentration of 10 mM and Terbium-labelled phospho-eIF2α antibody was added at a final concentration of 2 nM and incubated for 90 minutes. The resulting fluorescence was monitored in an EnVison® Multilabel reader (PerkinElmer, Waltham, Mass.). TR-FRET ratios and the resulting IC50 values were determined from the fitted inhibition curves. Biochemical specificity profiling was performed at Cerep (Redmond, Wash.) and DiscoverX (San Diego, Calif.).

PIK3CG = target: T2, PIK3CG (Homo sapiens, UniProt P48736); settings: read-out: Direct inhibitory activity on PIK3CG (KINOMEscan)
T2 construct: purchased DiscoverX (San Diego, Calif.)
T2 sequence (P48736 whole entry): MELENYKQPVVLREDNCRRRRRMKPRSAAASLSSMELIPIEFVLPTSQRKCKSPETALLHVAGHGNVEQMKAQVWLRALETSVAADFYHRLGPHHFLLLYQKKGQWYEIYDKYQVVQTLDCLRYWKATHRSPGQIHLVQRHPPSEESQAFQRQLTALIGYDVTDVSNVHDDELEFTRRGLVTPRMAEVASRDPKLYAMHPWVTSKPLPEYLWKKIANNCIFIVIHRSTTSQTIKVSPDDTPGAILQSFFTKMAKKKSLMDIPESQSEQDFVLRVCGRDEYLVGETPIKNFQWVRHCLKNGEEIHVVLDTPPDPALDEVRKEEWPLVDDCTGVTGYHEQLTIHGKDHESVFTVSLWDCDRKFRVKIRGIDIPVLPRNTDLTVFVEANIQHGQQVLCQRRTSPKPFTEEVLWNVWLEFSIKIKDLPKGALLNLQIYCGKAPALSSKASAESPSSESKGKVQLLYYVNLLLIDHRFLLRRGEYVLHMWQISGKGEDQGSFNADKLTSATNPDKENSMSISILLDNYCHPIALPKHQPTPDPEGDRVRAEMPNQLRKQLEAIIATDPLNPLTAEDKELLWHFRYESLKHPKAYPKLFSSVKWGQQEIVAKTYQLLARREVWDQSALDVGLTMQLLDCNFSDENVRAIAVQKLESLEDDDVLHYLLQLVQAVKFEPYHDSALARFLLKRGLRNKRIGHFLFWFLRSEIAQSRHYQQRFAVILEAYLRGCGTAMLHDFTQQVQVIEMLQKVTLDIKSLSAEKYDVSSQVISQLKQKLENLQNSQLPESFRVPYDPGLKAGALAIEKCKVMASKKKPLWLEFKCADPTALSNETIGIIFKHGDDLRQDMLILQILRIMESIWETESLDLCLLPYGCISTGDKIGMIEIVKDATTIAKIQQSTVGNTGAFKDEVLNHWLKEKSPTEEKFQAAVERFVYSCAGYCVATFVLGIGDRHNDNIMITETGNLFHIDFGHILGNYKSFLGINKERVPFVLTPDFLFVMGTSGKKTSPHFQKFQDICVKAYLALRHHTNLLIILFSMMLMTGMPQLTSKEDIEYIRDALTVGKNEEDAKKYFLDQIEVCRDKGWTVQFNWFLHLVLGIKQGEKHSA
Description: as §1

SYK = target: T3, SYK (Homo sapiens, UniProt P43405); settings: read-out: Direct inhibitory activity on SYK (KINOMEscan)
T3 construct: purchased DiscoverX (San Diego, Calif.) scanMAX
Description: as §1

EGFR = target: T4, EGFR (Homo sapiens, UniProt P00533); settings: read-out: Direct inhibitory activity on EGFR (KINOMEscan)
T4 construct: purchased DiscoverX (San Diego, Calif.) scanMAX
Description: as §1

PIK3C2B = target: T5, PIK3C2B (Homo sapiens, UniProt O00750); settings: read-out: Direct inhibitory activity on PIK3C2B (KINOMEscan)
T5 construct: purchased DiscoverX (San Diego, Calif.)
Description: as §1

AKT1 = target: T6, AKT1 (Homo sapiens, UniProt P31749); settings: read-out: Direct inhibitory activity on AKT1 (KINOMEscan)
T6 construct: purchased DiscoverX (San Diego, Calif.) scanMAX
Description: as §1

ERK5 (MAPK7) = target: T7, ERK5 (MAPK7) (Homo sapiens, UniProt Q13164); settings: read-out: Direct inhibitory activity on ERK5 (KINOMEscan)
T7 construct: purchased DiscoverX (San Diego, Calif.) scanMAX
T7 sequence (Q13164 whole entry): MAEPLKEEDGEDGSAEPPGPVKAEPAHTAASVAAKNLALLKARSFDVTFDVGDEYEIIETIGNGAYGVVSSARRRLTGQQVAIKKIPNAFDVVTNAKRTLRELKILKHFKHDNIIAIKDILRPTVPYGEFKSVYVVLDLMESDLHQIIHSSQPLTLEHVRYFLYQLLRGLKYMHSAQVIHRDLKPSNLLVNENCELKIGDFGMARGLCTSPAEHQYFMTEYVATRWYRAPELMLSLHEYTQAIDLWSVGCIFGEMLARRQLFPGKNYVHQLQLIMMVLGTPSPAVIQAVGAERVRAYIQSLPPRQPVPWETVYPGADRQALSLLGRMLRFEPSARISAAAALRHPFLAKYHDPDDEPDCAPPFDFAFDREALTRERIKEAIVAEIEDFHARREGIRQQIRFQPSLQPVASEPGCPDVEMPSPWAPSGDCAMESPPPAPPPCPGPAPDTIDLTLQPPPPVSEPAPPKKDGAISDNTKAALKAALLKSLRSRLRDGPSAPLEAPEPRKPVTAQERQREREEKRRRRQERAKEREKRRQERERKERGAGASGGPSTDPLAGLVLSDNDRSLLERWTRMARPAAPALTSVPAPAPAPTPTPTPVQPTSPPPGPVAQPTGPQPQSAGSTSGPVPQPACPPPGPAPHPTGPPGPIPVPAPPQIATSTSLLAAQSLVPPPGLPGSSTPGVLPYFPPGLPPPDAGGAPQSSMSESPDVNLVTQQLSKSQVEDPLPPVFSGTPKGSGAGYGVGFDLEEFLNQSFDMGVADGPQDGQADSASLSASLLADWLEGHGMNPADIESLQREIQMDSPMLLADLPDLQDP
Description: as §1

ERK2 (MAPK1) = target: T8, ERK2 (MAPK1) (Homo sapiens, UniProt P28482); settings: read-out: Direct inhibitory activity on ERK2 (KINOMEscan)
T8 construct: purchased DiscoverX (San Diego, Calif.) scanMAX
T8 sequence (P28482 whole entry): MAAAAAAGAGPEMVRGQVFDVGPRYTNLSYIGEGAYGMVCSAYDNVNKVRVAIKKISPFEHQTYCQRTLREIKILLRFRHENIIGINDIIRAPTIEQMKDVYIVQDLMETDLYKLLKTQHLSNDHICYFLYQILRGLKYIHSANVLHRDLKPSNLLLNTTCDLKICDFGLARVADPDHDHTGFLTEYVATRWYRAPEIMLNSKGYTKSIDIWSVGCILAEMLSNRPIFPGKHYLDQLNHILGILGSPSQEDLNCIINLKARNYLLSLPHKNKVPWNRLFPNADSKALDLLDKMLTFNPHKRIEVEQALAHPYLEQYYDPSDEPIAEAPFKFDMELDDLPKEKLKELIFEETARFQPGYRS
Description: as §1

PYK2 (PTK2B) = target: T9, PYK2 (PTK2B) (Homo sapiens, UniProt Q14289); settings: read-out: Direct inhibitory activity on PYK2 (KINOMEscan)
T9 construct: purchased DiscoverX (San Diego, Calif.)
Description: as §1

ERBB4 = target: T10, ERBB4 (Homo sapiens, UniProt Q15303); settings: read-out: Direct inhibitory activity on ERBB4 (KINOMEscan)
T10 construct: purchased DiscoverX (San Diego, Calif.) scanMAX
T10 sequence (Q15303 26-1308): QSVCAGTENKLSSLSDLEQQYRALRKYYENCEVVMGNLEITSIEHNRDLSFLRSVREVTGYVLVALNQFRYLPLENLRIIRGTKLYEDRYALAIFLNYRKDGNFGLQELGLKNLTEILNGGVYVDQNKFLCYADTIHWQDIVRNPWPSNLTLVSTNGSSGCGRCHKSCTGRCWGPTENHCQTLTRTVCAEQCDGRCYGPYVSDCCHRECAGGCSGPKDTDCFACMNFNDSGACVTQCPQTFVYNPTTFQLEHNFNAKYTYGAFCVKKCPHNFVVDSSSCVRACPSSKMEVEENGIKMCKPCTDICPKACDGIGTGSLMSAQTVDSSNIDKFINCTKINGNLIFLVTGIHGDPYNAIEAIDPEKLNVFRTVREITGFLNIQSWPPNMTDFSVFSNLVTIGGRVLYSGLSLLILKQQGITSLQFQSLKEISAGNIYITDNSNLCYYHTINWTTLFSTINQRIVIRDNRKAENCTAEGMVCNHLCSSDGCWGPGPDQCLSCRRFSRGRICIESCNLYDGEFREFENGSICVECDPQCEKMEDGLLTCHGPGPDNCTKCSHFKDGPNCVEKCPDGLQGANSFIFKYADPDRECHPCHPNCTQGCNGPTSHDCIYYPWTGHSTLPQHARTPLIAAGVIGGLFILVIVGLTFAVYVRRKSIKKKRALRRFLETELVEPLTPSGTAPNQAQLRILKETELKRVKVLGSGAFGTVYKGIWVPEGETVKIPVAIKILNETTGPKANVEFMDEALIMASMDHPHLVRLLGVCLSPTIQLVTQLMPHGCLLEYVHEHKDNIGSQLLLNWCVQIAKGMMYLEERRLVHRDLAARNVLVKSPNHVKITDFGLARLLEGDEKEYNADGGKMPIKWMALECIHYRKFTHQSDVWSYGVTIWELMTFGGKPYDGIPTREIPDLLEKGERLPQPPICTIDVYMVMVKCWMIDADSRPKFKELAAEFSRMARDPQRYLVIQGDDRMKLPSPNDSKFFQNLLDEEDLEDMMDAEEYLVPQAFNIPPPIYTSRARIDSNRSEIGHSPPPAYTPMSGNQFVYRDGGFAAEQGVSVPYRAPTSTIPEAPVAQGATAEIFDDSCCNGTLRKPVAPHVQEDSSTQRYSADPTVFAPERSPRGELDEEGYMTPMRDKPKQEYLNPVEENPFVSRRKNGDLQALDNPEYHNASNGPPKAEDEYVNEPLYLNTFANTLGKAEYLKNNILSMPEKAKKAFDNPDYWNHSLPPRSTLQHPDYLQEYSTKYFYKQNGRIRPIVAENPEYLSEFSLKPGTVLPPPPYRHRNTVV
Description: as §1

[1] = target: T11, GCN2 (Kin.Dom.2,S808G) (EIF2AK4) (Homo sapiens, UniProt Q9P2K8, S808G); settings: read-out: Inhibition of GCN2/EIF2AK4 (KINOMEscan)
T11 construct: Kin.Dom.2; purchased DiscoverX (San Diego, Calif.) scanMAX
T11 sequence (Q9P2K8 590-1001 S808G limits assumed): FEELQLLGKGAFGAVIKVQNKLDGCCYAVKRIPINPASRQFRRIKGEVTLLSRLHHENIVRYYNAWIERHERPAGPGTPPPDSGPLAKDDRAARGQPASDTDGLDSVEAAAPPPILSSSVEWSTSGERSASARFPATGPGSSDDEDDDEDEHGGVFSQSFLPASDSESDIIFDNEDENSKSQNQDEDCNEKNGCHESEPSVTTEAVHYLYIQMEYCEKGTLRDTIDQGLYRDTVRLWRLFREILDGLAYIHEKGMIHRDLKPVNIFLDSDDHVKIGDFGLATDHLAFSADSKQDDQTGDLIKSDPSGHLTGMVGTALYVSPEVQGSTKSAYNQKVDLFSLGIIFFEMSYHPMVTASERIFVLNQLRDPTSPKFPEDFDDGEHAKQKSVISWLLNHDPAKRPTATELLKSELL
Description: as §1, with “TR-FRET” for “Biochemical assays: Recombinant human EIF2AK3 (PERK) catalytic domain (amino acids 536-1116; Cat # PV5107), GFP-eIF2a (Cat # PV4809) substrate, and Terbium-labelled phospho-eIF2a antibody (Cat # PR8956B) were purchased from Invitrogen (Carlsbad, Calif.). HIS-SUMO-GCN2 catalytic domain (amino acids 584-1019) was expressed and purified from E. coli. TR-FRET”

PRKR (EIF2AK2) = target: T12, PRKR (EIF2AK2) (Homo sapiens, UniProt P19525); settings: read-out: Inhibition of PRKR/EIF2AK2 (KINOMEscan)
T12 construct: purchased DiscoverX (San Diego, Calif.) scanMAX
T12 sequence (P19525 whole entry): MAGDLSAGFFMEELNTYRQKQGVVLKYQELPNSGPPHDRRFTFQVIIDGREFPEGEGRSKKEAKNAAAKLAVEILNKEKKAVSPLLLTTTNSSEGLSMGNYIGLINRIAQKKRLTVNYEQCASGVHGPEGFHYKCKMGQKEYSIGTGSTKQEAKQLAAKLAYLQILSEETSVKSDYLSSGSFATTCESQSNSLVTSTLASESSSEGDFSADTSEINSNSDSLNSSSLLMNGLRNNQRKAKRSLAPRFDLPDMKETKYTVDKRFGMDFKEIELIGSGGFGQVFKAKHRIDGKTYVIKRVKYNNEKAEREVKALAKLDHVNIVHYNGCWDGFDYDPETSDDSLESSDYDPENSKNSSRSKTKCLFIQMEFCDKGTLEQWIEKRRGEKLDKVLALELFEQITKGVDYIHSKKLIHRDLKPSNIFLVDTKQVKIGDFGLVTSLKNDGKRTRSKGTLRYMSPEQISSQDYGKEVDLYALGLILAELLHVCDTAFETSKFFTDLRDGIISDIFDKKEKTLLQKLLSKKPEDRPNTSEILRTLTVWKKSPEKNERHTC
Description: as §1, with “TR-FRET” for “Biochemical assays: Recombinant human EIF2AK3 (PERK) catalytic domain (amino acids 536-1116; Cat # PV5107), GFP-eIF2a (Cat # PV4809) substrate, and Terbium-labelled phospho-eIF2a antibody (Cat # PR8956B) were purchased from Invitrogen (Carlsbad, Calif.). HIS-SUMO-GCN2 catalytic domain (amino acids 584-1019) was expressed and purified from E. coli. TR-FRET”

T1 sequence (P31152 whole entry): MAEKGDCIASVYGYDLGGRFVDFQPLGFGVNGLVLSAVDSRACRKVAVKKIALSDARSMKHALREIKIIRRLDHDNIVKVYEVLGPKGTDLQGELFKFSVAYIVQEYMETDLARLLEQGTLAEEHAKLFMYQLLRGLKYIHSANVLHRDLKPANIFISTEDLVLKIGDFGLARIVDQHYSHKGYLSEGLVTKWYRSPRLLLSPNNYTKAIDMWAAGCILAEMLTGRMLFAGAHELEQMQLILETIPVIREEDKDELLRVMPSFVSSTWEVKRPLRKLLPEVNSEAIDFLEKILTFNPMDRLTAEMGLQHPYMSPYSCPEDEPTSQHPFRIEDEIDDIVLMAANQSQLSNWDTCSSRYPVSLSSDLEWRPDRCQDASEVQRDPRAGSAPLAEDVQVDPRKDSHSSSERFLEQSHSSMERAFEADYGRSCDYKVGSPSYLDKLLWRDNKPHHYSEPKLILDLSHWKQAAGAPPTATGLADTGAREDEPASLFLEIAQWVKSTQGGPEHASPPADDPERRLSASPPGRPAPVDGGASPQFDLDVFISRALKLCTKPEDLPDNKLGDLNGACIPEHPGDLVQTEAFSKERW

SMILES | inhibition at 0.2 µM (ERK4 (MAPK4)) | inhibition at 2 µM (ERK4 (MAPK4)) | inhibition at 20 µM (ERK4 (MAPK4)) | inhibition at 0.2 µM (PIK3CG) | inhibition at 2 µM (PIK3CG) | inhibition at 20 µM (PIK3CG) | inhibition at 0.2 µM (SYK) | inhibition at 2 µM (SYK) | inhibition at 20 µM (SYK) | inhibition at 0.2 µM (EGFR) | inhibition at 2 µM (EGFR) | inhibition at 20 µM (EGFR) | inhibition at 0.2 µM (PIK3C2B) | inhibition at 2 µM (PIK3C2B) | inhibition at 20 µM (PIK3C2B) | inhibition at 0.2 µM (AKT1) | inhibition at 2 µM (AKT1) | inhibition at 20 µM (AKT1) | inhibition at 0.2 µM (ERK5 (MAPK7)) | inhibition at 2 µM (ERK5 (MAPK7)) | other results
Cc1cccc(CC(=O)N2CCc3c2ccc(-c2cn(C)c4ncnc(N)c24)c3F)n1 [GSK2656157, reference compound] | 0% | 35% | 0% | 36% | 47% | 50% | 0% | 12% | 23% | 18% | 16% | 50% | 0% | 9% | 22% | 14% | 32% | 0% | 4% | 23% | inhibition at 20 µM (ERK5 (MAPK7)): 12%; inhibition at 0.2 µM (ERK2 (MAPK1)): 0%; inhibition at 2 µM (ERK2 (MAPK1)): 0%; inhibition at 20 µM (ERK2 (MAPK1)): 0%; inhibition at 0.2 µM (PYK2 (PTK2B)): 0%; inhibition at 2 µM (PYK2 (PTK2B)): 0%; inhibition at 20 µM (PYK2 (PTK2B)): 3%; inhibition at 0.2 µM (ERBB4): 0%; inhibition at 2 µM (ERBB4): 0%; inhibition at 20 µM (ERBB4): 0%; inhibition at 0.2 µM [1]: 7%; inhibition at 2 µM [1]: 13%; inhibition at 20 µM [1]: 79%; inhibition at 0.2 µM (PRKR (EIF2AK2)): 20%; inhibition at 2 µM (PRKR (EIF2AK2)): 45%; inhibition at 20 µM (PRKR (EIF2AK2)): 67%
Cc1cc(NC(=O)[C@H](O)c2cc(F)cc(F)c2)ccc1-c1cnc(N)c(C(=O)NC(C)C)c1 [LY4, 2-amino-5-[4-[[(2R)-2-(3,5-difluorophenyl)-2-hydroxy-acetyl]amino]-2-methyl-phenyl]-N-isopropyl-pyridine-3-carboxamide] | 0% | 0% | 0% | 24% | 0% | 26% | 0% | 0% | 0% | 30% | 23% | 16% | 40% | 39% | 94% | 0% | 5% | 0% | 0% | 0% | inhibition at 20 µM (ERK5 (MAPK7)): 4%; inhibition at 0.2 µM (ERK2 (MAPK1)): 0%; inhibition at 2 µM (ERK2 (MAPK1)): 0%; inhibition at 20 µM (ERK2 (MAPK1)): 1%; inhibition at 0.2 µM (PYK2 (PTK2B)): 0%; inhibition at 2 µM (PYK2 (PTK2B)): 0%; inhibition at 20 µM (PYK2 (PTK2B)): 6%; inhibition at 0.2 µM (ERBB4): 0%; inhibition at 2 µM (ERBB4): 0%; inhibition at 20 µM (ERBB4): 4%; inhibition at 0.2 µM [1]: 0%; inhibition at 2 µM [1]: 0%; inhibition at 20 µM [1]: 28%; inhibition at 0.2 µM (PRKR (EIF2AK2)): 0%; inhibition at 2 µM (PRKR (EIF2AK2)): 0%; inhibition at 20 µM (PRKR (EIF2AK2)): 0%

From US20210121527A1, “METHODS OF TREATING MINIMAL RESIDUAL CANCER” (ICAHN SCHOOL OF MEDICINE AT MOUNT SINAI, priority 2018, published 2021)
